Data: PMC6753678, “Fueling Open Innovation for Malaria Transmission-Blocking Drugs: Hundreds of Molecules Targeting Early Parasite Mosquito Stages” (Frontiers in Microbiology, 2019)

Assays:
[1] = system: P. falciparum female gametocytes; set-up: method as in Miguel-Blanco et al 2017; conditions: TCAMS library screen; ref Miguel-Blanco et al 2017; read-out: Pf FGAA IC50; cited from earlier work
HepG2 cells = conditions: HepG2 value reported with Pf FGAA screen; ref Miguel-Blanco et al 2017; cited from earlier work
[2] = system: P. falciparum female gametocytes; test: P. falciparum female gametogenesis assay (Pf FGAA); conditions: 1: YES; 0: NO

Row | Structure (SMILES) | IC50 [1] [nM] | HepG2 cytoxicity (Pf FGAA screen) (HepG2 cells) [µM] | Is compound selective in assay? Pf FGAA active? [2]
1 | NCCCCNc1cc(-c2ccnc(Nc3cccc(Cl)c3)n2)ccn1 [TCMDC-134683] | 1460 | 0.67 | 0 (0: NO)
2 | Fc1cc(Cl)ccc1Nc1ccnc2cc(-c3ccc(CN4CCOCC4)o3)ccc12 [TCMDC-138393] | 640 | 5.62 | 0 (0: NO)
3 | CC1Cc2ccccc2N1S(=O)(=O)c1cccc(C(=O)Nc2nc(-c3ccccn3)cs2)c1 (stereo not drawn) [TCMDC-124559] | 340 | 50.12 | 1 (1: YES)
4 | Fc1ccc2nc(Nc3nc(-c4ccccn4)cs3)sc2c1 [TCMDC-125540] | 54.3 | 58.31 | 1 (1: YES)
5 | CC(C)N1CCN(C(CN2CCN(CCCOc3ccccc3-c3ccccc3)CC2)c2ccc(F)cc2)CC1.Cl (stereo not drawn) [TCMDC-135499] | 1410 | 4.32 | 0 (0: NO)
6 | CC(C)c1ccc(CN2CCC(CNC(=O)c3cc(-c4ccc(N(C)C)cc4)cs3)C2)cc1.O=C(O)C(F)(F)F (stereo not drawn) [TCMDC-134440] | 710 | 5.85 | 0 (0: NO)
7 | NCCCNc1nc(Nc2ccc(C(F)(F)F)cc2F)c2c(=O)[nH]ccc2n1.O=C(O)C(F)(F)F [TCMDC-135056] | 1600 | 9.30 | 0 (0: NO)
8 | CC(C)c1ccc(CN2CCC(CNC(=O)c3cc(-c4cccc(C(F)(F)F)c4)cs3)C2)cc1.O=C(O)C(F)(F)F (stereo not drawn) [TCMDC-134435] | 1300 | 5.13 | 0 (0: NO)
9 | COc1c(CNCCCCCCNCc2cc(Cl)c3ccccc3c2OC)cc(Cl)c2ccccc12.CS(=O)(=O)O [TCMDC-137958] | 1180 | 4.62 | 0 (0: NO)
10 | CCCOc1c(CCNCCCCNCCc2ccc3ccccc3c2OCCC)ccc2ccccc12.CS(=O)(=O)O [TCMDC-137950] | 640 | 1.72 | 0 (0: NO)
11 | COc1c(CNCCCCCCNCc2c(OC)c(OC)c3ccccc3c2OC)c(OC)c2ccccc2c1OC.CS(=O)(=O)O [TCMDC-137837] | 3690 | 4.42 | 0 (0: NO)
12 | CN(C)c1ccc(-c2csc(C(=O)NCC3CCN(Cc4ccc(C(C)(C)C)cc4)C3)c2)cc1.O=C(O)C(F)(F)F (stereo not drawn) [TCMDC-134449] | 600 | 7.24 | 1 (1: YES)
13 | COc1ccc(-c2csc3ncnc(Cl)c23)cc1 [TCMDC-123805] | 1460 | 0.55 | 0 (0: NO)
14 | CN(CCc1ccccc1)c1ncc(-c2cccc(CNCCC3CCCN3C)c2)cn1 (stereo not drawn) [TCMDC-133143] | 1360 | 2.88 | 0 (0: NO)
15 | O=C(Nc1cccc(-c2cccc(-c3nc4cc(C(F)(F)F)ccc4[nH]3)c2)c1)Nc1ccc(F)c(F)c1F [TCMDC-133229] | 1400 | 3.43 | 0 (0: NO)
16 | Cl.Clc1cc(Br)ccc1-c1ccc(CNCC2CCNCC2)o1 [TCMDC-124617] | 720 | 4.37 | 0 (0: NO)
17 | Cc1ccc(Cl)c2sc(N3CCN(C(=O)c4ccc([N+](=O)[O-])o4)CC3)nc12 [TCMDC-124311] | 1440 | 25.79 | 1 (1: YES)
18 | FC(F)(F)c1cnc(Sc2nnc(-c3ccncc3)o2)c(Cl)c1 [TCMDC-123767] | 160 | >100 | 1 (1: YES)
19 | Cc1ccc(Cn2nc(N3CCNCC3)ccc2=O)cc1NC(=O)Nc1ccc(-c2ccccc2)cc1.O=C(O)C(F)(F)F [TCMDC-132580] | 1940 | 7.42 | 0 (0: NO)

Row | Structure (SMILES) | IC50 [1] [nM] | HepG2 cytoxicity (Pf FGAA screen) (HepG2 cells) [µM] | Is compound selective in assay? Pf FGAA active? [2]
20 | Br.CC(C)(Cc1ccc(Cl)cc1)NCCCCCCNCCc1ccc(O)c(O)c1 [TCMDC-131277] | 9660 | 10.97 | 0 (0: NO)
21 | CN1CCC(N2CCC(Oc3cccc(C(=O)NCCCC4CCCC4)c3)CC2)CC1 [TCMDC-124677] | 1470 | 4.90 | 0 (0: NO)
22 | COc1ccc(CNC2Cc3ccccc3C2)cc1-c1ccc(S(=O)(=O)NCCN2CCCC2)c(F)c1.O=C(O)C(F)(F)F [TCMDC-132266] | 1950 | 6.03 | 0 (0: NO)
23 | CCCC(=O)NC(c1ccc(C(C)C)cc1)c1ccc2cccnc2c1O (stereo not drawn) [TCMDC-123884] | 1540 | >100 | 1 (1: YES)
24 | CCCC(=O)NC(c1ccc(C)cc1)c1ccc2cccnc2c1O (stereo not drawn) [TCMDC-123605] | 1730 | 9.22 | 0 (0: NO)
25 | Cc1ccnc(NC(c2ccc(Cl)c([N+](=O)[O-])c2)c2ccc3cccnc3c2O)c1 (stereo not drawn) [TCMDC-123691] | 1480 | 23.45 | 1 (1: YES)
26 | ON=C(c1nc2ccccc2[nH]1)c1nc2ccccc2[nH]1 [TCMDC-125758] | 330 | 4.96 | 1 (1: YES)
27 | Cc1cc(C(F)(F)F)cc(-n2ncc(-c3ccc(C(=O)NCc4ccccc4N)cc3)c2N)n1.O=C(O)C(F)(F)F [TCMDC-136658] | 1460 | 26.82 | 1 (1: YES)
28 | CC(C)c1ccc(CN2CCC(CNC(=O)c3cc(-c4cccc(Cl)c4)cs3)C2)cc1.O=C(O)C(F)(F)F (stereo not drawn) [TCMDC-134438] | 600 | 6.53 | 1 (1: YES)
29 | CN(C)Cc1cccc2nc(-c3csc(Cc4cc(Cl)ccc4OCc4ccccc4)n3)[nH]c12 [TCMDC-132174] | 2100 | 13.04 | 0 (0: NO)
30 | Cc1sc2nc(CN3CCCC3)nc(-n3c(NCCO)nc4ccccc43)c2c1C [TCMDC-124811] | 7050 | 25.73 | 0 (0: NO)
31 | COc1cccc(-c2csc(C(=O)NCC3CCN(Cc4ccc(C(C)C)cc4)C3)c2)c1.O=C(O)C(F)(F)F (stereo not drawn) [TCMDC-134439] | 1370 | 11.51 | 0 (0: NO)
32 | CN(C)CCNCc1ccc(-c2ccc3c(Nc4ccc(Cl)cc4F)ccnc3c2)o1 [TCMDC-138391] | 1710 | 0.89 | 0 (0: NO)
33 | OC1CCN(c2cc(-c3ccccn3)nc(-c3ccccn3)n2)CC1 [TCMDC-123786] | 1540 | 14.14 | 0 (0: NO)
34 | CN1CCN(Cc2ccc(-c3cc4c(Nc5ccc(OCc6cccc(F)c6)c(Cl)c5)ncnc4s3)[nH]2)CC1 [TCMDC-135458] | 2410 | 10.98 | 0 (0: NO)
35 | Cc1cccc2nc(-c3ccc(-c4ccc(CNCc5ccc(CN)cc5)cc4)cc3)[nH]c12.O=C(O)C(F)(F)F [TCMDC-132813] | 2160 | 18.09 | 0 (0: NO)
36 | CCCc1cc(=O)[nH]c(-n2nc(C)cc2NC(=O)CC(c2ccccc2)c2ccccc2)n1 [TCMDC-124940] | 1300 | >100 | 1 (1: YES)
37 | CN1CCCC1CCNCc1cccc(-c2cnc(N3CCCC(C)(C)C3)nc2)c1 (stereo not drawn) [TCMDC-133144] | 1670 | 4.63 | 0 (0: NO)
